Publication PMC12040169 (PLOS Biology, 2025)

assay: in vitro; conditions: human, hela cells, % viability

Row | SMILES | viability at 28.5 h, 10 µM
1 | Cc1nn(CC(=O)NC2CCC2)c(=O)c2cc3ccsc3n12 [CBK284103] | 103%
2 | COc1ccccc1CC(=O)N1C2CCC1CC(O)(c1ccco1)C2 (centres unmarked) [CBK284106] | 88.8%
3 | CO[C@H]1CC[C@H](C(=O)N2C3CCC2CC(O)(c2ccco2)C3)CC1 (some centres unmarked) [CBK284107] | 96.7%
4 | CN(C(=O)CN1C2CCC1CC(O)(c1ccco1)C2)C1CCCCC1 (centres unmarked) [CBK284108] | 102%
5 | Cc1nn(CC(=O)NC2CCC2)c(=O)c2cc3sccc3n12 [CBK284110] | 108%
6 | Cc1nn(CC(=O)C(C)(C)C)c(=O)c2cc3sccc3n12 [CBK284111] | 87.2%
7 | O=C(C1CC1)N1CCC(Cn2nc(-c3ccccc3)ccc2=O)CC1 [CBK284115] | 89.7%
8 | CN(C)C(=O)CN1N=C(C(C)(C)C)Cn2c(cc3sccc32)C1=O [CBK284116] | 89.5%
9 | CN(C)c1ccc(C(=O)N2C3CCC2CC(O)(c2ccco2)C3)cc1 (centres unmarked) [CBK284117] | 93.3%
10 | Cc1cc2c(cc3c(=O)n(CC(=O)NC4CCC4)nc(C)n32)s1 [CBK284118] | 107%
11 | CCc1nn(CC(=O)N2CCCCC2)c(=O)c2cc3ccsc3n12 [CBK284119] | 85.7%
12 | CCc1nn(CC(=O)N(CC)CC)c(=O)c2cc3sc(C)cc3n12 [CBK284121] | 86.2%
13 | CCOC(=O)C(C)n1nc(CC)n2c(cc3ccsc32)c1=O (centres unmarked) [CBK284127] | 103%
14 | CCc1nn(CC(=O)NC2CC2)c(=O)c2cc3ccsc3n12 [CBK284128] | 88.6%
15 | CCc1nn(CC(=O)NCC2CC2)c(=O)c2cc3ccsc3n12 [CBK284129] | 87.8%
16 | CCc1nn(CC(=O)NC(C)C)c(=O)c2cc3ccsc3n12 [CBK284131] | 82.6%
17 | CCc1nn(CC(=O)NC2CCCC2)c(=O)c2cc3ccsc3n12 [CBK284134] | 98.4%
18 | COc1ccc(CC(=O)N2C3CCC2CC(O)(c2ccco2)C3)cc1 (centres unmarked) [CBK284137] | 92.5%
19 | O=C(Cc1cccc(F)c1)N1C2CCC1CC(O)(c1ccco1)C2 (centres unmarked) [CBK284138] | 95.3%
20 | CCCc1nn(CC(=O)NC2CC2)c(=O)c2cc3ccsc3n12 [CBK284146] | 85.3%
21 | CCCc1nn(CC(=O)NC(C)C)c(=O)c2cc3ccsc3n12 [CBK284147] | 87.5%
22 | CCn1c2cc(C)sc2c2cnn(CCN3CCCC3)c(=O)c21 [CBK284151] | 99.7%
23 | Cc1cc2c(s1)c1cnn(CC(=O)N3CCCC3)c(=O)c1n2C [CBK284153] | 85.6%

Row | SMILES | viability at 28.5 h, 10 µM
24 | CCOC(=O)C(C)n1ncc2c3sc(C)cc3n(C)c2c1=O (centres unmarked) [CBK284157] | 85.9%
25 | Cc1cc2c(s1)c1cnn(CC(=O)NC(C)(C)C)c(=O)c1n2C [CBK284158] | 86.6%
26 | O=C(c1nccs1)C1CCN(C(=O)Cc2ccccc2F)CC1 [CBK284161] | 87.3%
27 | CC(C(=O)N1CCC(C(=O)c2nccs2)CC1)c1ccccc1 (centres unmarked) [CBK284163] | 80.8%
28 | C=CCn1c2cc(C)sc2c2cnn(CC(=O)N(C)C)c(=O)c21 [CBK284164] | 83.9%
29 | C=CCn1c2cc(C)sc2c2cnn(CC(=O)OCC)c(=O)c21 [CBK284165] | 82.9%
30 | CCn1c2cc(C)sc2c2cnn(CC(=O)N3CCCC3)c(=O)c21 [CBK284168] | 99.8%
31 | CCn1c2cc(C)sc2c2cnn(CC(=O)NC3CC3)c(=O)c21 [CBK284170] | 89.3%
32 | CCCNC(=O)Cn1ncc2c3sc(C)cc3n(CC)c2c1=O [CBK284171] | 85.8%
33 | O=C(c1nccs1)C1CCN(C(=O)C2CCCCC2)CC1 [CBK284175] | 107%
34 | O=C(c1nccs1)C1CCN(C(=O)Cc2ccsc2)CC1 [CBK284176] | 95.5%
35 | COC(=O)CN1N=C(C(C)(C)C)Cn2c(cc3sccc32)C1=O [CBK284177] | 83.3%
36 | Cn1ccnc1C1(O)CC2CCC(C1)N2C(=O)Nc1ccccc1F (centres unmarked) [CBK284178] | 88.2%
37 | Cn1ccnc1C1(O)CC2CCC(C1)N2C(=O)c1ccco1 (centres unmarked) [CBK284179] | 81.7%
38 | Cc1cc2c(s1)c1cnn(CCN3CCCC3)c(=O)c1n2C [CBK284180] | 90%
39 | CC(C)C(=O)N1CCC(n2nc(-c3cccs3)ccc2=O)CC1 [CBK284181] | 86.6%
40 | CCn1c2cc(C)sc2c2cnn(CC(=O)OC)c(=O)c21 [CBK284186] | 86.3%
41 | Cc1cc2c(s1)c1cnn(CC(=O)NC3CCCC3)c(=O)c1n2C [CBK284189] | 84.2%
42 | CCCc1nn(CC(=O)N(C)C)c(=O)c2cc3ccsc3n12 [CBK284193] | 84.4%
43 | O=C(C1CC=CCC1)N1CCCC(c2[nH]ncc2-c2ccncc2)C1 (centres unmarked) [CBK284198] | 93.2%
44 | O=C(c1nccs1)C1CCN(C(=O)Cc2ccc(F)cc2)CC1 [CBK284199] | 104%
45 | O=C(c1nccs1)C1CCN(C(=O)c2cc(F)cc(F)c2)CC1 [CBK284200] | 96.9%
46 | O=C(Cn1ncn2c(cc3ccsc32)c1=O)N1CCCCCC1 [CBK284202] | 81.7%

Row | SMILES | viability at 28.5 h, 10 µM
47 | COc1ccc(C2=NNC(=O)c3cc4sccc4n3C2)cc1 [CBK284205] | 93.1%
48 | O=C(c1nccs1)C1CCN(C(=O)C2(c3ccccc3)CC2)CC1 [CBK284206] | 97.4%
49 | O=C(c1nccs1)C1CCN(C(=O)Cc2cccc(F)c2)CC1 [CBK284208] | 94.6%
50 | CN(C)C(=O)CN1N=C(C(C)(C)C)Cn2c(cc3ccccc32)C1=O [CBK284210] | 81.8%
51 | O=C(C1CC1)N1CCC(n2nc(-c3cccs3)ccc2=O)CC1 [CBK284213] | 94.7%
52 | OC1(c2ccc(F)cc2)COC2(CCNCC2)C1 (centres unmarked) [CBK284214] | 93.6%
53 | CCn1c2cc(C)oc2c2cnn(CC(=O)N3CCCC3)c(=O)c21 [CBK284215] | 101%
54 | O=c1ccc(-c2ccc(F)cc2)nn1CC1CCNCC1 [CBK284216] | 86.5%
55 | Cc1cc2c(o1)c1cnn(CC(=O)N3CCCCC3)c(=O)c1n2C [CBK284217] | 90.5%
56 | Cc1cc2c(o1)c1cnn(CC(=O)N3CCCC(C)C3)c(=O)c1n2C (centres unmarked) [CBK284218] | 85%
57 | Cc1cc2c(o1)c1cnn(CC(=O)N3CCCCCC3)c(=O)c1n2C [CBK284219] | 81.2%
58 | CC1CNCCC1n1nc(-c2cccs2)ccc1=O (centres unmarked) [CBK284221] | 82.9%
59 | Cc1cc2c(o1)c1cnn(CC(=O)N3CCCC3)c(=O)c1n2C [CBK284223] | 100%
60 | CCn1c2cc(C)oc2c2cnn(CC(=O)N(C)C)c(=O)c21 [CBK284224] | 83.4%
61 | Cc1sc2nc(C3CC3)n(C3CCNCC3)c(=O)c2c1C [CBK284228] | 92.3%
62 | CCCc1nn(Cc2ccccn2)c(=O)c2cc3ccsc3n12 [CBK284229] | 61.1%
63 | CCn1c2cc(C)oc2c2cn[nH]c(=O)c21 [CBK284230] | 76.1%
64 | Cc1cc2c(s1)c1cnn(CC(=O)N(C)C)c(=O)c1n2C [CBK284231] | 99.5%
65 | Cc1cc2c(o1)c1cnn(CC(=O)N(C)C)c(=O)c1n2C(C)C [CBK284233] | 88.9%
66 | O=C(C1CC1)N1CCC(c2[nH]ncc2-c2ccncc2)CC1 [CBK284238] | 87.6%
67 | O=C(C1CCC1)N1CCC(n2nc(C3CC3)ccc2=O)CC1 [CBK284239] | 104%
68 | O=C(CC1CCCCC1)N1CCC(n2nc(C3CC3)ccc2=O)CC1 [CBK284241] | 88.6%
69 | O=C(Cc1cccs1)N1CCC(n2nc(C3CC3)ccc2=O)CC1 [CBK284243] | 78.6%

Row | SMILES | viability at 28.5 h, 10 µM
70 | CC1CCCN(C(=O)Cn2ncn3c(cc4ccsc43)c2=O)C1 (centres unmarked) [CBK284245] | 84.5%
71 | Cc1cc2c(s1)c1cnn(CC(=O)NC3CC3)c(=O)c1n2C [CBK284246] | 90.5%
72 | Cc1cc2c(s1)c1cnn(CC(=O)OC(C)C)c(=O)c1n2C [CBK284247] | 102%
73 | Cc1noc(C)c1C(=O)N1CCN(Cc2ccco2)C[C@@H]1C(C)C [CBK284248] | 93.9%
74 | CCC(=O)N1CCC[C@H]1Cn1nc(-c2ccc(F)cc2)ccc1=O [CBK284253] | 81.1%
75 | Cc1cc(C(=O)N2CCN(Cc3ccco3)C[C@@H]2C(C)C)c(C)[nH]1 [CBK284254] | 88.2%
76 | O=C(NC[C@H]1CCCN(C(=O)c2cccs2)C1)c1ccco1 [CBK284261] | 94.6%
77 | COc1cccc(CN2CCN(C(=O)c3ccco3)[C@@H](C)C2)c1 [CBK284267] | 110%
78 | COc1ccc(NC(=O)[C@@H]2C=CCN2C(=O)C2CC2)cc1 [CBK284277] | 98.2%
79 | COc1cccc(C(=O)N2CC=C[C@H]2C(=O)NC2CC2)c1 [CBK284278] | 94.4%
80 | O=C(c1cccs1)N1CCC[C@H]1[C@H](O)c1nccs1 [CBK284285] | 92.1%
81 | O=C(c1ccco1)N1CCC[C@H]1[C@H](O)c1nccs1 [CBK284286] | 98.5%
82 | CCCC(=O)N1CCC[C@H]1Cn1nc(-c2ccc(F)cc2)ccc1=O [CBK284288] | 99.5%
83 | O=C(c1ccco1)N1CCC[C@H]1[C@H](O)c1nc2ccccc2s1 [CBK284290] | 99%
84 | O=C(NC1CC1)[C@@H]1C=CCN1S(=O)(=O)c1ccc(F)cc1 [CBK284294] | 92.5%
85 | CC[C@H](Cn1nc(-c2cccs2)ccc1=O)NC(=O)C1CCC1 [CBK284295] | 103%
86 | CCC(=O)N[C@H](CC)Cn1ncc2ccccc2c1=O [CBK284303] | 77.1%
87 | CC[C@H](Cn1ncc2ccccc2c1=O)NC(=O)C(C)(C)C [CBK284304] | 90.2%
88 | CCn1cc(C(=O)N2CCN(Cc3ccco3)C[C@@H]2C(C)C)cn1 [CBK284307] | 97.7%
89 | CC(C)(C)OC(=O)N1CCC[C@@H](C(=O)c2cccs2)C1 [CBK284310] | 82.1%
90 | COc1ccc(CNC(=O)[C@H]2C=CCN2C(=O)c2ccco2)cc1 [CBK284321] | 71.9%
91 | CC(C)[C@@H](N)Cn1nnc2ccccc21 [CBK284323] | 82.7%
92 | COc1ccc(C(=O)[C@H]2CCCN(C(=O)c3ccco3)C2)cc1 [CBK284327] | 99.7%
